# Experimental data published in patent US12498382B2, “Biomarkers for vitiligo” (INCYTE CORPORATION, priority 2019, dated 2025).
# Tested on: HaCaT cells
# Assay: Normalized expression of target genes in HaCaT cells stimulated with TNFα and IFNγ in presence/absence of JAK inhibitors (QuantiGene Plex)
# Type: cell-based, human
# Settings: for MFI, normalized expression of IYK2: gene IYK2; for MFI, normalized expression of IYK2 / MFI, normalized expression of TNF / MFI, normalized expression of VEGFA: HaCaT, normalized to HPRT1, mean ± standard error; for MFI, normalized expression of TNF: gene TNF; for MFI, normalized expression of VEGFA: gene VEGFA
# Method: Transformed human keratinocyte (HaCaT) cells were purchased from AddexBio (Catalog #T0020001) and cultured as outlined in Example 5. […] After 48 hours, cell culture media was removed from 24 well plates and replaced with 250 uL of media containing serial diluted drug, then incubated for 15 minutes at 37° C./5% CO2. After drug incubation, 250 uL of combinatory stimulation containing Recombinant Human Interferon gamma (R&D Systems, Catalog #285-IF-100) and Recombinant Human Tumor Necrosis Factor alpha (R&D Systems, Catalog #210-TA-020) was added to plates. The final concentration of Recombinant Human Interferon gamma and Recombinant Human Tumor Necrosis Factor alpha was 25 ng/mL of each cytokine. Cytokine stimulation added to wells containing drug brought the final concentrations for each drug treatment to 25 nM, 50 nM, 100 nM, and 200 nM. Treated plates were mixed by gentle agitation for 30 seconds then incubated for 24 hours at 37° C./5% CO2. At the end of the 24 hour incubation media was immediately removed from each plate.
# RNA was isolated from HaCaT cells using the QuantiGene Plex Assay reagents and protocols (Affymetrix, Catalog #QGP-232-M18042302) according to the manufacturer's guidelines. Cells were washed with 1×DPBS then lysed by incubation with provided QuantiGene lysis buffer for 30 minutes at 50-55° C. Cell lysates were incubated for 18-24 hours at 55° C. with capture beads and probe set designed to specifically hybridize to mRNA from targets of interest. Genes included housekeeping genes (e.g., HPRT1 and GAPDH) used for the normalization of the results. After the 18-24 hour incubation signal was amplified utilizing branched DNA methodologies, according to the manufacturer's procedures (Affymetrix, Catalog #QGP-232-M18042302). After hybridization and wash steps assay plate was read on the Luminex 200 and data were expressed as Net Median Fluorescence Intensity. Data was then normalized to the Net Median Fluorescence Intensity of the housekeeping gene HPRT1 (Table 14).
# [1] = TNFα+IFNγ 25 ng/mL, Drug Conc 25 nM
# [2] = TNFα+IFNγ 25 ng/mL, Drug Conc 50 nM
# [3] = TNFα+IFNγ 25 ng/mL, Drug Conc 100 nM
# [4] = TNFα+IFNγ 25 ng/mL, Drug Conc 200 nM
# [5] = TNFα (25 ng/mL) and IFNγ (25 ng/mL), 1st (lowest, likely 25 nM) of 4 drug conc
# [6] = TNFα (25 ng/mL) and IFNγ (25 ng/mL), 2nd (likely 50 nM) of 4 drug conc
# [7] = TNFα (25 ng/mL) and IFNγ (25 ng/mL), 3rd (likely 100 nM) of 4 drug conc
# [8] = TNFα (25 ng/mL) and IFNγ (25 ng/mL), 4th (highest, likely 200 nM) of 4 drug conc
# [9] = drug without TNFα/IFNγ stimulation
# [10] = no stimulation, Drug Conc 200 nM
structure (smiles),measurement,setting,value
"C[C@@H](O)c1nc2cnc3ccsc3c2n1[C@H]1CC[C@H](CC#N)OC1 [Cpd D, ((2R,5S)-5-{2-[(1R)-1-hydroxyethyl]-1H-imidazo[4,5-d]thieno[3,2-b]pyridin-1-yl}tetrahydro-2H-pyran-2-yl)acetonitrile]",AREG normalized expression MFI,[1],725.6 ± 33.78
same,CCL17 normalized expression MFI,[1],3.08 ± 0.64
same,CCL18 normalized expression MFI,[1],1.89 ± 0.28
same,FLG normalized expression MFI,[1],71.27 ± 11.09
same,IL6 normalized expression MFI,[1],132.28 ± 7.41
same,IL8 normalized expression MFI,[1],398.64 ± 22.41
same,IL17A normalized expression MFI,[1],1.05 ± 0.18
same,IL22 normalized expression MFI,[1],1.39 ± 0.23
same,IL23A normalized expression MFI,[1],48.01 ± 2.69
same,IL31 normalized expression MFI,[1],1.99 ± 0.4
same,ILIA normalized expression MFI,[1],1269.66 ± 50.59
same,JAK1 normalized expression MFI,[1],200.4 ± 9.84
same,JAK2 normalized expression MFI,[1],108.89 ± 3.25
same,JAK3 normalized expression MFI,[1],0.97 ± 0.18
same,LOR normalized expression MFI,[1],23 ± 9.47
same,S100A7 normalized expression MFI,[1],5.37 ± 1.3
same,S100A12 normalized expression MFI,[1],1.31 ± 0.18
same,SERPINB3 normalized expression MFI,[1],2 ± 0.3
same,SERPINB4 normalized expression MFI,[1],2.78 ± 0.31
same,STAT1 normalized expression MFI,[1],3156.82 ± 244.78
same,STAT3 normalized expression MFI,[1],1572.76 ± 65.5
same,STAT4 normalized expression MFI,[1],5.4 ± 0.45
same,STAT5A normalized expression MFI,[1],20.12 ± 1.29
same,STAT5B normalized expression MFI,[1],38.56 ± 2.02
same,STAT6 normalized expression MFI,[1],1042.76 ± 29.23
same,AREG normalized expression MFI,[2],778.42 ± 44.28
same,CCL17 normalized expression MFI,[2],2.71 ± 0.41
same,CCL18 normalized expression MFI,[2],2.16 ± 0.22
same,FLG normalized expression MFI,[2],78.47 ± 10.63
same,IL6 normalized expression MFI,[2],137.61 ± 5.87
same,IL8 normalized expression MFI,[2],417.47 ± 21.97
same,IL17A normalized expression MFI,[2],1.06 ± 0.15
same,IL22 normalized expression MFI,[2],1.4 ± 0.21
same,IL23A normalized expression MFI,[2],56.64 ± 3.44
same,IL31 normalized expression MFI,[2],1.82 ± 0.44
same,ILIA normalized expression MFI,[2],1336.95 ± 50.97
same,JAK1 normalized expression MFI,[2],210.52 ± 7.73
same,JAK2 normalized expression MFI,[2],106.83 ± 5.94
same,JAK3 normalized expression MFI,[2],0.99 ± 0.2
same,LOR normalized expression MFI,[2],28.28 ± 10.86
same,S100A7 normalized expression MFI,[2],5.94 ± 1.23
same,S100A12 normalized expression MFI,[2],1.11 ± 0.18
same,SERPINB3 normalized expression MFI,[2],2.54 ± 0.33
same,SERPINB4 normalized expression MFI,[2],3.2 ± 0.53
same,STAT1 normalized expression MFI,[2],3009.6 ± 169.64
same,STAT3 normalized expression MFI,[2],1543.4 ± 58.65
same,STAT4 normalized expression MFI,[2],6.1 ± 0.36
same,STAT5A normalized expression MFI,[2],22.69 ± 1.71
same,STAT5B normalized expression MFI,[2],40.76 ± 1.91
same,STAT6 normalized expression MFI,[2],1046.46 ± 29.12
same,AREG normalized expression MFI,[3],703.3 ± 37.3
same,CCL17 normalized expression MFI,[3],2.86 ± 0.3
same,CCL18 normalized expression MFI,[3],1.74 ± 0.26
same,FLG normalized expression MFI,[3],69.64 ± 9.33
same,IL6 normalized expression MFI,[3],122.46 ± 5.35
same,IL8 normalized expression MFI,[3],410.72 ± 29.84
same,IL17A normalized expression MFI,[3],0.84 ± 0.16
same,IL22 normalized expression MFI,[3],1.24 ± 0.22
same,IL23A normalized expression MFI,[3],51.42 ± 2.55
same,IL31 normalized expression MFI,[3],1.61 ± 0.35
same,ILIA normalized expression MFI,[3],1244.96 ± 41.03
same,JAK1 normalized expression MFI,[3],200.25 ± 8.15
same,JAK2 normalized expression MFI,[3],102.64 ± 3.52
same,JAK3 normalized expression MFI,[3],1.01 ± 0.17
same,LOR normalized expression MFI,[3],21.29 ± 9.59
same,S100A7 normalized expression MFI,[3],4.6 ± 1.68
same,S100A12 normalized expression MFI,[3],1.12 ± 0.15
same,SERPINB3 normalized expression MFI,[3],2 ± 0.26
same,SERPINB4 normalized expression MFI,[3],2.64 ± 0.3
same,STAT1 normalized expression MFI,[3],2991.9 ± 200.56
same,STAT3 normalized expression MFI,[3],1549.17 ± 89.41
same,STAT4 normalized expression MFI,[3],5.83 ± 0.34
same,STAT5A normalized expression MFI,[3],19.54 ± 1.34
same,STAT5B normalized expression MFI,[3],40.91 ± 2.17
same,STAT6 normalized expression MFI,[3],985.1 ± 39.79
same,AREG normalized expression MFI,[4],713.33 ± 37.27
same,CCL17 normalized expression MFI,[4],2.34 ± 0.4
same,CCL18 normalized expression MFI,[4],1.57 ± 0.3
same,FLG normalized expression MFI,[4],72.06 ± 11.85
same,IL6 normalized expression MFI,[4],119.49 ± 4.42
same,IL8 normalized expression MFI,[4],367.56 ± 17.81
same,IL17A normalized expression MFI,[4],0.82 ± 0.13
same,IL22 normalized expression MFI,[4],1.28 ± 0.2
same,IL23A normalized expression MFI,[4],53.83 ± 3.54
same,IL31 normalized expression MFI,[4],1.51 ± 0.36
same,ILIA normalized expression MFI,[4],1163.14 ± 26.71
same,JAK1 normalized expression MFI,[4],190.53 ± 7.68
same,JAK2 normalized expression MFI,[4],92.21 ± 2.9
same,JAK3 normalized expression MFI,[4],0.86 ± 0.16
same,LOR normalized expression MFI,[4],17 ± 7.28
same,S100A7 normalized expression MFI,[4],3.77 ± 0.91
same,S100A12 normalized expression MFI,[4],0.91 ± 0.14
same,SERPINB3 normalized expression MFI,[4],1.69 ± 0.29
same,SERPINB4 normalized expression MFI,[4],2.33 ± 0.38
same,STAT1 normalized expression MFI,[4],3154.11 ± 139.56
same,STAT3 normalized expression MFI,[4],1570.19 ± 51.51
same,STAT4 normalized expression MFI,[4],5.42 ± 0.52
same,STAT5A normalized expression MFI,[4],18.33 ± 1.83
same,STAT5B normalized expression MFI,[4],36.62 ± 1.7
same,STAT6 normalized expression MFI,[4],1013.25 ± 17.15
same,"MFI, normalized expression of IYK2",[5],283.93 ± 8.16
same,"MFI, normalized expression of IYK2",[6],307.36 ± 14.87
same,"MFI, normalized expression of IYK2",[7],280.63 ± 10.46
same,"MFI, normalized expression of IYK2",[8],283.28 ± 10.88
same,"MFI, normalized expression of IYK2",[9],217.28 ± 10.09
same,"MFI, normalized expression of TNF",[5],26.07 ± 1.13
same,"MFI, normalized expression of TNF",[6],29.31 ± 2.52
same,"MFI, normalized expression of TNF",[7],27.59 ± 1.64
same,"MFI, normalized expression of TNF",[8],27.63 ± 2.3
same,"MFI, normalized expression of TNF",[9],1.59 ± 0.22
same,"MFI, normalized expression of VEGFA",[5],600.98 ± 13.99
same,"MFI, normalized expression of VEGFA",[6],582.24 ± 17.89
same,"MFI, normalized expression of VEGFA",[7],572.2 ± 19.67
same,"MFI, normalized expression of VEGFA",[8],541.01 ± 9.94
same,"MFI, normalized expression of VEGFA",[9],210.34 ± 9.72
same,AREG normalized expression MFI,[10],251.8 ± 23.68
same,CCL17 normalized expression MFI,[10],0.94 ± 0.14
same,CCL18 normalized expression MFI,[10],0.95 ± 0.19
same,FLG normalized expression MFI,[10],219.44 ± 34.83
same,IL6 normalized expression MFI,[10],5.15 ± 0.31
same,IL8 normalized expression MFI,[10],58.9 ± 5.89
same,IL17A normalized expression MFI,[10],0.43 ± 0.08
same,IL22 normalized expression MFI,[10],0.62 ± 0.11
same,IL23A normalized expression MFI,[10],9.55 ± 1.15
same,IL31 normalized expression MFI,[10],0.91 ± 0.23
same,ILIA normalized expression MFI,[10],84.51 ± 7.04
same,JAK1 normalized expression MFI,[10],171.53 ± 9.49
same,JAK2 normalized expression MFI,[10],25.25 ± 1.04
same,JAK3 normalized expression MFI,[10],0.53 ± 0.09
same,LOR normalized expression MFI,[10],12.79 ± 4.84
same,S100A7 normalized expression MFI,[10],3.69 ± 0.84
same,S100A12 normalized expression MFI,[10],0.61 ± 0.11
same,SERPINB3 normalized expression MFI,[10],1.5 ± 0.27
same,SERPINB4 normalized expression MFI,[10],1.84 ± 0.42
same,STAT1 normalized expression MFI,[10],549.79 ± 12.18
same,STAT3 normalized expression MFI,[10],750.9 ± 27.68
same,STAT4 normalized expression MFI,[10],3.75 ± 0.33
same,STAT5A normalized expression MFI,[10],1.12 ± 0.19
same,STAT5B normalized expression MFI,[10],54.64 ± 4.79
same,STAT6 normalized expression MFI,[10],762.04 ± 9.44
